{"source": "patent US20130102554A1", "about": "“COMPOSITION FOR TREATMENT OF OBESITY USING WHEAT BRAN EXTRACT OR ACTIVE INGREDIENT ISOLATED THEREFROM” (priority 2009, published 2013)", "key": {"[1]": {"system": "mouse preadipocyte 3T3-L1", "experiment": "Adipocyte differentiation of 3T3-L1 preadipocytes (MDI induction, Oil Red O staining, absorbance at 510 nm)", "assay_type": "cell-based", "conditions": "FIGS. 3 to 8; for differentiation of preadipocytes into adipocytes: 3T3-L1, MDI-induced, day 8, Oil Red O; for lipid accumulation of adipocytes: 3T3-L1, Oil Red O lipid contents", "experimental": "The mouse preadipocyte 3T3-L1 was cultured at 37° C. in 10% BCS DMEM under a 5% CO2 condition.\n3T3-L1 preadipocytes were seeded at a density of 5×10^4 cells/well into 24-well plates. After being grown to 100% confluency, the cells were incubated for an additional two days. Then, the preadipocytes were induced to differentiate into adipcytes in the presence of MDI (0.5 mM 3-isobutyl-1-methylxanthine (IBMX), 1 μM dexamethasone, 1 μg/ml insulin) in 10% FBS DMEM. After incubation for 48 hours in this medium, the cells were cultured for two days in 10% FBS DMEM containing 1 μg/ml insulin. Subsequently, the cells were cultured for four days in 10% FBS DMEM, with replacement of the medium with a fresh one every two days. During adipocyte differentiation, the cells were treated with predetermined concentrations of the samples. On day 8 at which differentiation was completed, observations were made of the differentiation of the cells. In this connection, the adipose differentiation was qualitatively analyzed with Oil Red 0 staining under an optical microscope and quantitatively analyzed by measuring absorbance at 510 nm."}, "[2]": {"biological_target": "T1, PPARγ (Homo sapiens, UniProt P37231)", "T1 construct": "expressed in transfected cells; host or cells: HEK 293T", "T1 sequence (P37231 1-505)": "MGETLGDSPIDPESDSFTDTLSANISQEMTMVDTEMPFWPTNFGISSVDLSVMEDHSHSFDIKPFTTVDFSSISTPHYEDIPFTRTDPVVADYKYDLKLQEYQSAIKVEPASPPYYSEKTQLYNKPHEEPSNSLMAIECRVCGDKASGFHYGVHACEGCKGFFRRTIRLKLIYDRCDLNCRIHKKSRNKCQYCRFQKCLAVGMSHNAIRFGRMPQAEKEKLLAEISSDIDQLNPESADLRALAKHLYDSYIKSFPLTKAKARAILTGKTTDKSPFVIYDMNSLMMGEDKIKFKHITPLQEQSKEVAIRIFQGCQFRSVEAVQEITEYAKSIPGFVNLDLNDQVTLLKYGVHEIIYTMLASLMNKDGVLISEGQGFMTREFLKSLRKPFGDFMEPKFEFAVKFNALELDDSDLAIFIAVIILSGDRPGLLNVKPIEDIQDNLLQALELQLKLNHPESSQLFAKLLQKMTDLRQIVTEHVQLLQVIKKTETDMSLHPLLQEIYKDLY", "experiment": "PPARγ transcriptional activity, PPRE luciferase reporter in HEK 293T cells", "assay_type": "cell-based", "conditions": "24 hours, alone or with 10 μM troglitazone, FIGS. 9 and 10", "experimental": "HEK 293T cells were co-transfected with a recombinant pGL3-basic luciferase expression vector (Promega) carrying a PPRE (PPARγ response element) gene and a PPARγ gene and a pRL-SV-40 plasmid (Promega) carrying a Renilla luciferase cDNA as a control reporter. One day after transfection, the cells were treated for 24 hours with predetermined concentrations of the samples (Red-dog A, Red-dog B and Compounds 1 & 2) alone or in combination with 10 μM troglitazone, a ligand to PPARγ. The inhibitory activity of the samples against the transcription factor PPARγ was determined by measuring the expression levels of luciferase."}, "[3]": {"system": "PPARγ", "experiment": "Expression of PPARγ at gene level, real-time PCR in differentiated 3T3-L1 cells", "assay_type": "cell-based, mouse", "conditions": "3T3-L1 differentiated 8 days, GAPDH control, FIGS. 11 to 16", "experimental": "(§1) During adipocyte differentiation, expression levels of PPARγ, C/EBRα and ADD1/SREBP1c are increased.\n(§2) After being treated with predetermined concentrations of the samples (Red-dog A, Red-dog B and Compounds 1 & 2) in the same manner as in Experimental Example 1-2, the cells were induced to differentiate into adipocytes for 8 days. The expression levels of PPARγ, C/EBRα and ADD1/SREBP1c were analyzed using real-time PCR. The 3T3-L1 cells were washed twice with PBS after differentiation for 8 days and the cell pellets were used for RNA isolation using an RNA prep kit (Qiagen). cDNA was synthesized from 1 μg of the isolated RNA before real-time PCR using SYBR green (Takara) and the primers given in Table 1, below. As a control gene, GAPDH was used. In this regard, the cDNA synthesized from 1 μg of RNA was diluted 1/50 to a volume of 5 μL and mixed with 0.5 μL of each of 10 pmole primer, 10 μL of 2XSYBR green, and […] of distilled water to give a PCR mix with a total volume of 20 μL. Real-time PCR started with denaturation at 95° C. for 30 sec, followed by 40 thermal cycles of denaturation at 95° C. for 5 sec, annealing for 60° C. for 15 sec and extension at 72° C. for 10 sec. The melt curve consisted of 80 melt cycles, starting at 55° C. to 95° C. with increments of 0.5° C. per cycle. Desired fluorescent signals were detected (data analysis was done with Bio-Rad MyiQ program)."}, "[4]": {"system": "C/EBRα", "experiment": "Expression of C/EBRα at gene level, real-time PCR in differentiated 3T3-L1 cells", "assay_type": "cell-based, mouse", "conditions": "3T3-L1 differentiated 8 days, GAPDH control, FIGS. 11 to 16", "experimental": "as §1, §2"}, "[5]": {"system": "ADD1/SREBP1c", "experiment": "Expression of ADD1/SREBP1c at gene level, real-time PCR in differentiated 3T3-L1 cells", "assay_type": "cell-based, mouse", "conditions": "3T3-L1 differentiated 8 days, GAPDH control, FIGS. 11 to 16", "experimental": "as §1, §2"}, "[6]": {"system": "PPARγ", "experiment": "Expression of PPARγ at protein level, SDS-PAGE and immunoblot in 3T3-L1 cells", "assay_type": "cell-based, mouse", "conditions": "3T3-L1, compared with β-actin; FIGS. 17 and 18", "experimental": "(§3) After the 313-L1 cells were treated with the samples (Red-dog A & Red-dog B, Compounds 1 & 2) at regular intervals of two days in the same manner as in the adipocyte differentiation method, they were washed twice with PBS and lyzed in RIPA buffer (50 mM Tris-HCl, pH 8.0, 150 mM sodium chloride, 1% NP-40, 0.5% sodium dexycholate, 0.1% sodium dodecyl sulfate, protease inhibitor). Proteins harvested by centrifugation at 13,000 rpm for 30 min were separated on 8% SDS-PAGE gel and then transferred onto a membrane. The membrane was blocked with TBST containing 5% skim milk and reacted with a primary antibody (PPARγ, C/EBPα) (Santa Cruz) and then with a secondary antibody (Santa Cruz), followed by color development with an ECL reagent (Thermo scientific) to compare the expression level of PPARγ and C/EBPα with that of β-actin."}, "[7]": {"system": "C/EBRα", "experiment": "Expression of C/EBRα at protein level, SDS-PAGE and immunoblot in 3T3-L1 cells", "assay_type": "cell-based, mouse", "conditions": "3T3-L1, compared with β-actin; FIGS. 17 and 18", "experimental": "as §3"}, "[8]": {"system": "resistin", "experiment": "Anti-insulin resistance assay: resistin expression at gene level in differentiated 3T3-L1 cells", "assay_type": "cell-based, mouse", "conditions": "cells differentiated for 8 days, FIGS. 19 to 24", "experimental": "(§4) To examine whether the samples (Red-dog A & Red-dog B, compounds 1 & 2) are effective as anti-insulin resistance agents, expression levels of resistin, aP2 and Fas in the cells that had been differentiated for 8 days as in Experimental Example 1 were analyzed using the primers of Table 2, below."}, "[9]": {"system": "aP2", "experiment": "Anti-insulin resistance assay: aP2 expression at gene level in differentiated 3T3-L1 cells", "assay_type": "cell-based, mouse", "conditions": "cells differentiated for 8 days, FIGS. 19 to 24", "experimental": "as §4"}, "[10]": {"system": "Fas", "experiment": "Anti-insulin resistance assay: Fas expression at gene level in differentiated 3T3-L1 cells", "assay_type": "cell-based, mouse", "conditions": "cells differentiated for 8 days, FIGS. 19 to 24", "experimental": "as §4"}}}
{"molecule": "CCCCCC(O)C(O)/C=C/C(O)CCCCCCCC(=O)O", "note": "(stereo not shown) [Compound 2, 9,12,13-trihydroxy-10(E)-octadecenoic acid]", "values": [{"measurement": "differentiation of preadipocytes into adipocytes", "setting": "[1]", "result": "inhibited the differentiation of preadipocytes into adipocytes in dose-dependent manners"}, {"measurement": "lipid accumulation of adipocytes", "setting": "[1]", "result": "inhibitory activities"}, {"measurement": "transcriptional activity of PPARγ", "setting": "[2]", "result": "inhibited the transcriptional activity of PPARγ in a dose-dependent manner"}, {"measurement": "expression of PPARγ at the genetic level", "setting": "[3]", "result": "inhibit the expression of PPARγ, C/EBRα and ADD1/SREBP1c in dose-dependent manners"}, {"measurement": "expression of C/EBRα at the genetic level", "setting": "[4]", "result": "inhibit the expression of PPARγ, C/EBRα and ADD1/SREBP1c in dose-dependent manners"}, {"measurement": "expression of ADD1/SREBP1c at the genetic level", "setting": "[5]", "result": "inhibit the expression of PPARγ, C/EBRα and ADD1/SREBP1c in dose-dependent manners"}, {"measurement": "expression of PPARγ at protein level", "setting": "[6]", "result": "inhibited the expression of PPARγ and C/EBRα in dose-dependent manners"}, {"measurement": "expression of C/EBRα at protein level", "setting": "[7]", "result": "inhibited the expression of PPARγ and C/EBRα in dose-dependent manners"}, {"measurement": "expression of resistin at the genetic level", "setting": "[8]", "result": "inhibit the expression of resistin, aP2 and Fas in dose-dependent manners"}, {"measurement": "expression of resistin at the genetic level", "setting": "[8]; listed as Chemical Formula 2", "result": "significantly suppressed"}, {"measurement": "expression of aP2 at the genetic level", "setting": "[9]", "result": "inhibit the expression of resistin, aP2 and Fas in dose-dependent manners"}, {"measurement": "expression of aP2 at the genetic level", "setting": "[9]; listed as Chemical Formula 2", "result": "significantly suppressed"}, {"measurement": "expression of Fas at the genetic level", "setting": "[10]", "result": "inhibit the expression of resistin, aP2 and Fas in dose-dependent manners"}, {"measurement": "expression of Fas at the genetic level", "setting": "[10]; listed as Chemical Formula 2", "result": "significantly suppressed"}]}
{"molecule": "COc1cc(OC2OC(CO)[C@@H](O)[C@H](O)[C@@H]2O)ccc1O", "note": "(stereo partly drawn) [Compound 1, methoxy-hydroquinone-4-β-D-glucopyranoside]", "values": [{"measurement": "differentiation of preadipocytes into adipocytes", "setting": "[1]", "result": "inhibited the differentiation of preadipocytes into adipocytes in dose-dependent manners"}, {"measurement": "lipid accumulation of adipocytes", "setting": "[1]", "result": "inhibitory activities"}, {"measurement": "transcriptional activity of PPARγ", "setting": "[2]", "result": "inhibited the transcriptional activity of PPARγ in a dose-dependent manner"}, {"measurement": "expression of PPARγ at the genetic level", "setting": "[3]", "result": "inhibit the expression of PPARγ, C/EBRα and ADD1/SREBP1c in dose-dependent manners"}, {"measurement": "expression of C/EBRα at the genetic level", "setting": "[4]", "result": "inhibit the expression of PPARγ, C/EBRα and ADD1/SREBP1c in dose-dependent manners"}, {"measurement": "expression of ADD1/SREBP1c at the genetic level", "setting": "[5]", "result": "inhibit the expression of PPARγ, C/EBRα and ADD1/SREBP1c in dose-dependent manners"}, {"measurement": "expression of PPARγ at protein level", "setting": "[6]", "result": "inhibited the expression of PPARγ and C/EBRα in dose-dependent manners"}, {"measurement": "expression of C/EBRα at protein level", "setting": "[7]", "result": "inhibited the expression of PPARγ and C/EBRα in dose-dependent manners"}, {"measurement": "expression of resistin at the genetic level", "setting": "[8]", "result": "inhibit the expression of resistin, aP2 and Fas in dose-dependent manners"}, {"measurement": "expression of resistin at the genetic level", "setting": "[8]; listed as Chemical Formula 1", "result": "significantly suppressed"}, {"measurement": "expression of aP2 at the genetic level", "setting": "[9]", "result": "inhibit the expression of resistin, aP2 and Fas in dose-dependent manners"}, {"measurement": "expression of aP2 at the genetic level", "setting": "[9]; listed as Chemical Formula 1", "result": "significantly suppressed"}, {"measurement": "expression of Fas at the genetic level", "setting": "[10]", "result": "inhibit the expression of resistin, aP2 and Fas in dose-dependent manners"}, {"measurement": "expression of Fas at the genetic level", "setting": "[10]; listed as Chemical Formula 1", "result": "significantly suppressed"}]}
